Legend:
Venturia inaequalis = test: Activity against apple scab in-vitro (VII); type: cell-based; details: 10 ppm, 10 days, 20° C., mycelial growth
In short: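 V. inaequalis propagules (5×10^4/ml, malt agar-grown) were exposed in half-strength PDB to 10 ppm final test compound delivered in acetone. Growth was scored after incubation for 10 days at 20° C, as a rating relative to untreated or diluent-sprayed controls.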

Phytophthora infestans = type: in vivo; details: tomato, direct protectant foliar spray
[1] = system: Erysiphe graminis f.sp. hordei; test: Activity against barley powdery mildew, direct therapeutic (EGT); type: in vivo; details: direct therapeutic foliar spray, 600 ppm, up to 7 days
In short: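 A curative spray at 600 ppm was applied to single-leaf Golden Promise barley inoculated with powdery mildew conidia the previous day. After up to 7 days at 18 °C and 40% humidity, disease control was rated from percent leaf area sporulating relative to untreated or diluent-sprayed controls.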

Pyricularia oryzae = type: in vivo; details: rice seedlings, direct therapeutic foliar spray, 600 ppm, 4-5 days
Plasmopara viticola = test: Antisporulant activity against vine downy mildew (PVA); type: in vivo; details: vine leaves, antisporulant foliar spray, 600 ppm, 750 l/ha
In short: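 Cabernet Sauvignon vines (~8 cm) inoculated on lower leaf surfaces with 5×10^4 zoosporangia/ml, held 24 h at 21° C high humidity then 24 h glasshouse. Infected leaves sprayed underside with 600 ppm compound in 1:1 water/acetone, 0.04% Tween 20, 750 l/ha; 96 h glasshouse, 24 h humidity. Sporulating leaf area rated versus control.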

Alternaria solani = test: Activity against tomato early blight (AS); type: in vivo; details: Table VI; tomato seedlings, contact prophylactic foliar spray, 4 days
In short: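 Plants were challenged with A. solani conidia (10^4 spores/ml) 24 h after a protective foliar spray of compound in 50:50 acetone/water plus 0.04% Tween 20. Held humid at 21° C for 4 days, then percent leaf area with lesions was scored as a rating relative to controls.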

Rhizoctonia solani = test: Activity against Rhizoctonia in-vitro (RSI); type: cell-based; details: 10 ppm, 10 days, 20° C., mycelial growth
In short: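 Compound at a final 10 ppm (acetone vehicle) in half-strength PDB, inoculated with 5×10^4 fragments/ml of shaken-culture R. solani mycelium. After incubation at 20° C for 10 days, growth scored as a rating versus untreated or diluent-treated controls.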

Leptosphaeria nodorum = test: Activity against wheat leafspot (LN); type: in vivo; details: direct therapeutic foliar spray, 600 ppm, 6-8 days
In short: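 Therapeutic foliar spray: compound at 600 ppm applied to single-leaf wheat (cv Norman) 24 h after inoculation with 1.5×10^6 conidia/ml. Disease control scored after 6-8 days at 22° C and 70% humidity as lesions per leaf versus untreated or diluent-sprayed controls.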

Botrytis cinerea = test: Direct protectant activity against broad bean grey mould (BCB); type: in vivo; details: direct protectant foliar spray, 600 ppm, 4 days
In short: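 Protectant foliar test: lesion coverage assessed 4 days after inoculation and rated relative to untreated or diluent-sprayed plants. Compound applied at 600 ppm to cv The Sutton leaves 24 h before 10^6 conidia/ml suspension; incubation at 22 °C in high humidity.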

[2] = system: Pseudocercosporella herpotrichoides; test: Activity against wheat eyespot in-vitro (PHI); type: cell-based; details: 10 ppm, 10 days, 20° C., mycelial growth
In short: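 Mycelial growth was scored after 10 days at 20 °C against untreated or diluent controls. The broth was half-strength potato dextrose, holding 10 ppm test compound (from acetone) and 5×10^4 fragments/ml of the eyespot fungus.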

[3] = system: Erysiphe graminis f.sp. hordei; test: Direct protectant activity against barley powdery mildew (EGP); type: in vivo; details: direct protectant foliar spray, 8 days
In short: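 Rating reflects percentage of leaf area with sporulation compared with untreated or diluent-sprayed controls. Protectant spray was applied to single-leaf barley (cv Golden Promise) 24 h before conidia inoculation. Plants were kept at 18 °C and 40% RH throughout, with 8 days of disease development.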

| Compound | disease control rating VII (Venturia inaequalis) | disease control rating PIP (Phytophthora infestans) | disease control rating EGT [1] | disease control rating PO (Pyricularia oryzae) | disease control rating PVA (Plasmopara viticola) | disease control rating AS (Alternaria solani) | disease control rating RSI (Rhizoctonia solani) | disease control rating LN (Leptosphaeria nodorum) | disease control rating BCB (Botrytis cinerea) | disease control rating PHI [2] | disease control rating EGP [3] |
| --- | --- | --- | --- | --- | --- | --- | --- | --- | --- | --- | --- |
| CCCCc1ccc(CNC2COC3(CCC(C(C)(C)C)CC3)C2)cc1 (centres unmarked) [Compound 26] | 1 (about 50-80% disease control) | 0 (less than 50% disease control) | 2 (greater than 80% disease control) | 0 (less than 50% disease control) | 0 (less than 50% disease control) | 1 (about 50-80% disease control) | 0 (less than 50% disease control) | 0 (less than 50% disease control) | 0 (less than 50% disease control) | 1 (about 50-80% disease control) | 2 (greater than 80% disease control) |
| CCCCCCNC1COC2(CCC(C(C)(C)C)CC2)C1 (centres unmarked) [Compound 27] | 1 (about 50-80% disease control) | 0 (less than 50% disease control) | 2 (greater than 80% disease control) | 0 (less than 50% disease control) | 0 (less than 50% disease control) | 0 (less than 50% disease control) | 0 (less than 50% disease control) | 0 (less than 50% disease control) | 0 (less than 50% disease control) | 1 (about 50-80% disease control) | 2 (greater than 80% disease control) |
| Cc1ccc(CNC2COC3(CCC(C(C)(C)C)CC3)C2)cc1 (centres unmarked) [Compound 28] | 2 (greater than 80% disease control) | 0 (less than 50% disease control) | 2 (greater than 80% disease control) | 0 (less than 50% disease control) | 0 (less than 50% disease control) | 0 (less than 50% disease control) | 0 (less than 50% disease control) | 0 (less than 50% disease control) | 0 (less than 50% disease control) | 0 (less than 50% disease control) | 2 (greater than 80% disease control) |
| CC(C)(C)C1CCC2(CC1)CC(NCc1ccc(Br)cc1)CO2 (centres unmarked) [Compound 29] | 2 (greater than 80% disease control) | 0 (less than 50% disease control) | 2 (greater than 80% disease control) | 0 (less than 50% disease control) | 0 (less than 50% disease control) | 0 (less than 50% disease control) | 0 (less than 50% disease control) | 0 (less than 50% disease control) | 0 (less than 50% disease control) | 0 (less than 50% disease control) | 2 (greater than 80% disease control) |
| CC(C)(C)C1CCC2(CC1)CC(NCc1ccc(F)cc1)CO2 (centres unmarked) [Compound 30] | 2 (greater than 80% disease control) | 0 (less than 50% disease control) | 2 (greater than 80% disease control) | 0 (less than 50% disease control) | 0 (less than 50% disease control) | 0 (less than 50% disease control) | 0 (less than 50% disease control) | 0 (less than 50% disease control) | 0 (less than 50% disease control) | 0 (less than 50% disease control) | 2 (greater than 80% disease control) |
| CC(C)(C)C1CCC2(CC1)CC(NCc1ccccc1)CO2 (centres unmarked) [Compound 31] | 1 (about 50-80% disease control) | 0 (less than 50% disease control) | 2 (greater than 80% disease control) | 0 (less than 50% disease control) | 2 (greater than 80% disease control) | 1 (about 50-80% disease control) | 0 (less than 50% disease control) | 0 (less than 50% disease control) | 0 (less than 50% disease control) | 0 (less than 50% disease control) | 2 (greater than 80% disease control) |
| CCCCCCNC1COC2(CCCCC2)C1 (centres unmarked) [Compound 32] | 0 (less than 50% disease control) | 0 (less than 50% disease control) | 2 (greater than 80% disease control) | 0 (less than 50% disease control) | 0 (less than 50% disease control) | 0 (less than 50% disease control) | 0 (less than 50% disease control) | 0 (less than 50% disease control) | 0 (less than 50% disease control) | 0 (less than 50% disease control) | 2 (greater than 80% disease control) |
| c1ccc(CNC2COC3(CCCCC3)C2)cc1 (centres unmarked) [Compound 33] | 0 (less than 50% disease control) | 0 (less than 50% disease control) | 1 (about 50-80% disease control) | 0 (less than 50% disease control) | 0 (less than 50% disease control) | 0 (less than 50% disease control) | 0 (less than 50% disease control) | 0 (less than 50% disease control) | 0 (less than 50% disease control) | 0 (less than 50% disease control) | 0 (less than 50% disease control) |
| Clc1ccc(CNC2COC3(CCCCC3)C2)cc1 (centres unmarked) [Compound 34] | 0 (less than 50% disease control) | 0 (less than 50% disease control) | 2 (greater than 80% disease control) | 0 (less than 50% disease control) | 0 (less than 50% disease control) | 0 (less than 50% disease control) | 0 (less than 50% disease control) | 0 (less than 50% disease control) | 0 (less than 50% disease control) | 0 (less than 50% disease control) | 2 (greater than 80% disease control) |
| C1CCN(C2COC3(CCCCC3)C2)CC1 (centres unmarked) [Compound 35] | 0 (less than 50% disease control) | 0 (less than 50% disease control) | 0 (less than 50% disease control) | 0 (less than 50% disease control) | 0 (less than 50% disease control) | 0 (less than 50% disease control) | 0 (less than 50% disease control) | 0 (less than 50% disease control) | 0 (less than 50% disease control) | 0 (less than 50% disease control) | 0 (less than 50% disease control) |

Source: patent US5591741A, “Fungicidal spiroheterocyclic derivatives” (American Cyanamid Company, priority 1993, dated 1997)
